Assay [1] relates to Stichococcus bacillaris SAG 379-1a. Nature of the assay: Algal efficacy test of dry paint films (modified ASTM 5589, 6-well plates). Format: cell-based. The following applies: 3 weeks. How it is done: (§1) ROCIMA™ 250 (40% IPBC) was post added to a white, acrylic/silicone based outdoor paint free of biocides to give a total active ingredient concentration of 10000 and 1000 ppm respectively. These paints were then diluted with an antimicrobial free acrylic/silicone based paint and mixed to prepare targeted concentrations of antimicrobial compounds for the testing. The total biocides concentrations tested were 125, 250, 500, 1000, 2000 and 5000 ppm. After biocides addition or dilution, the paints were mixed 90 seconds with the horse power shaker (AXEL 75M3372/Agitateur SO-10MI) until uniformity was achieved. Paints containing different antimicrobial compounds at the same levels were mixed together in order to obtain the desired ratio of antimicrobial compounds. After one day, the paints were applied to Schleicher & Schuell filter paper at 280 μm wet film thickness and dried for 3 days at room temperature avoiding direct exposure to sunlight. Square discs (1.6 cm×1.6 cm) were cut out from each panel and were used as the substrate for algal efficacy tests. This sample size allowed for an agar border when the sample disc was placed into the well of the test plate.
(§2) Algal efficacy was tested according to modified ASTM 5589 which is a standard accelerated test method for determining resistance of various coatings (including paints) to algal defacement. To accommodate for high-throughput screening, this method was scaled down from petri dishes to 6-well plates. Bold Modified Basal Freshwater Nutrient Solution was used as growth medium. A single coated filter paper coupon was placed with a pair of sterile forceps at the center of the agar plug (on top) with the painted surface facing upwards. Algal inoculums were prepared by mixing equal concentrations (1×10^6 cfu/ml) and equal volumes of exponentially growing algae cultures.
(§3) Each well that contains a tested coupon was inoculated with 1750 μl of algal suspensions (1×10^6 cfu/ml) making sure that the whole surface (paint film as well as the agar surrounding it) was evenly covered. The plates were incubated at room temp (21° C.-25° C.) with cyclic exposure to light and dark phases, for a period of three weeks.
(§4) At the end of the three week incubation period, the samples were scored for percent inhibition regarding visible algal growth compared to the blank sample (0% inhibition).
(§5) The Synergy Index calculation was performed as follows.
(§6) The SI is calculated based on F. C. Kull et.
(§7) SI value of <1 in the formula indicates a synergism of the blended biocides exists.
(§8) The minimal targeted inhibition was set at 75%, meaning a coupon with at least 75% algal growth inhibition was considered as a pass.

The next assay deals with Chlorella sp. ATCC 7516. The description is as above. The settings on record: for inhibition at 2000 ppm: 504 h, read-out: % inhibition of visible algal growth. Type of assay: cell-based. On the procedure: as §1, §2, §3, §4, §5, §6, §7, §8

Each structure is given as a SMILES string. Where two headings read alike, the source gives them in different places.

The record followed here is US20150313236A1 (ROHM AND HAAS COMPANY, priority 2012, published 2015).

As to `CCCCNC(=O)OCC#CI` [IPBC, 3-Iodoprop-2-yn-1-yl butylcarbamate], the inhibition at 1000 ppm in assay [1] (Stichococcus bacillaris, 504 h, total conc 1000 ppm, vs blank sample, read-out: % inhibition of visible algal growth) is 100%. Further, the “Total conc (minimum inhibitory concentration chosen for SI; pass level ≧75% inhibition)” value in assay [1] (total active in liquid paint, dry film) is reported as 1000 ppm; with Chlorella sp. ATCC 7516 (total active in liquid paint, dry film, 3 weeks), 2000 ppm. In addition, in the assay on Chlorella sp. ATCC 7516 (total conc 2000 ppm, 3 weeks, vs blank sample), the inhibition at 2000 ppm amounted to 100%.

Turning to `O=c1[nH]c2c(c(=O)n1C1CCCCC1)CCC2` [Lenacil, 3-cyclohexyl-1,5,6,7-tetrahydrocyclopentapyrimidine-2,4(3H)-dione], the inhibition at 2000 ppm in assay [1] (Stichococcus bacillaris, 504 h, total conc 2000 ppm, vs blank sample, read-out: % inhibition of visible algal growth) amounted to 80%; in the assay on Chlorella sp. ATCC 7516, 65%.
